The text below walks through data of patent EP0114002B1, “Benzothiopyrano(4,3,2,-cd)indazoles, their pharmaceutical compositions and methods for their production” (WARNER-LAMBERT COMPANY, priority 1983, dated 1984).

In one experiment the test system is L1210 cells. As to the kind of experiment: L1210 murine leukemia cell growth inhibition in vitro. The format is cell-based. Particulars: Mus musculus, 72 h. As to the method: Another test protocol uses L1210 cells, a murine leukemia cell line, grown in RPMI 1640 supplemented with 5% fetal bovine serum and gentamicin ([…]). Drug dilutions are prepared in the appropriate solvent and 20 µl of each dilution are added to 24-well Linbro tissue culture plates, followed by the addition of 2.0 ml of cell suspension containing 3 x 10^4 cells per ml. Solvent and medium controls are included in each test. After incubation at 37°C forthree days in 5% C02, the contents of each well are removed and the cells counted in a ZBI Coulter counter. Percent growth are calculated relative to the controls and the levels of drug activity are expressed as ID50 in moles per liter.

The test system of a further experiment is HCT-8 cells. As to the kind of experiment: in vitro proliferating human colon adenocarcinoma (HCA) cell screen. The format is cell-based. As to the method:
One test protocol is the in vitro proliferating human colon adenocarcinoma (HCA) cell screen. In this test, HCT-8 cells (HCA cell line received from Yale University) are trypsinized using trypsin-EDTA. A single cell suspension is achieved by passing the cells through a 26 gauge needle with a 20 cc syringe. A cell suspension is prepared using RPMI 1640 + 10% FCS + 50) g/ml gentamicin sulfate with a cell concentration of approximately 30,000 cells/ml. The cell suspension is dispensed in Linbro 24-well plates; 1 ml/well. The plates are incubated for approximately 48 hours at 37°C in a 5% C02 atmosphere. At this time test compounds are added in the appropriate concentration. Five µl of the 200 µg/ml stock solution is added to each well in primary test. Ten µl of the appropirate dilution is added to each well for a titration test. The plates are re-incubated an additional 60 to 65 hours at 37°C in a 5% C02 atmosphere. The cells are lysed using a mix of cationic surfactant, glacial acetic acid, and sodium chloride. Two ml of the lysed cell suspension from each well is added to 8 ml of diluent. The number of nuclei is determined using a Coulter counter (ZBI model), and a percent growth for each drug concentration is calculated. From this, an ID50 molar concentration of a compound (that results in 50% inhibition of growth) is determined.

Experiment [1] deals with lymphocytic leukemia P388. As to the kind of experiment: in vivo lymphocytic leukemia P388 test. Set-up: species or system mice. Particulars: Mus musculus, P388, ip, 120 h, read-out: P388 in vivo T/C × 100; for response vs control in vivo at 25 mg/kg: Dose 25.00 mg/kg intraperitoneally once daily for five days; for response vs control in vivo at 6.25 mg/kg: Dose 6.25 mg/kg intraperitoneally once daily for five days; for response vs control in vivo at 12.5 mg/kg: Dose 12.50 mg/kg intraperitoneally once daily for five days; for response vs control in vivo at 100 mg/kg: Dose 100.00 mg/kg intraperitoneally once daily for five days; for response vs control in vivo at 3.12 mg/kg: Dose 3.12 mg/kg intraperitoneally once daily for five days; for response vs control in vivo at 50 mg/kg: Dose 50.00 mg/kg intraperitoneally once daily for five days. The protocol: Another test protocol is the in vivo lymphocytic leukemia P388 test. The animals used are either male or female CD2F, mice. There are six or seven animals per test group. The tumor transplant is by intraperitoneal injection of dilute ascitic fluid containing cells of lymphocytic leukemia P388. The test compounds are administered intraperitoneally once daily for five consecutive days at various doses following tumor inoculation. The animals are weighed and survivors are recorded on a regular basis for 30 days. A compound is designated "toxic" if, at a given dose, all animals died prior to four days after the first injection of drug. A ratio of survival time for treated (T)/control (C) animals is calculated. A criterion for efficacy is a ratio T/C times 100 greater than or equal to 125. See Cancer Chemotherapy Reports, Part 3, 3; 1 (1972) for a comprehensive discussion of the protocol.

The mark [2] stands for this setting: Table 2, three days incubation, read-out: L1210 in vitro IC50.
Setting [3] is: Table 2, 60 to 65 hours with compound, read-out: HCA—3 in vitro IC50.
The mark [4] stands for this setting: Table 1, three days incubation, 50% inhibition of growth, read-out: L1210 in vitro ID50.
[5] abbreviates: Table 1, 60 to 65 hours with compound, 50% inhibition of growth, read-out: HCA—3 in vitro ID50.

Structures are written as SMILES. Where a name gives a salt, the structure may show the parent alone. Read-outs that look alike come from different tables or passages of the source.

Regarding `CCN(CC)CCn1nc2c3c(c(NCCNCCO)ccc31)Sc1ccc(OC)cc1-2` [2-[[2-[[2-(2-(Diethylamino)ethyl]-9-methoxy-2H[1]benzothiopyrano[4,3,2-cd]indazol-5-yl]amino]ethyl]amino]ethanol], the IC50 with L1210 cells (setting [2]) was found to be 0.2 µM; in the experiment with HCT-8 cells (setting [3]) it was 0.23 µM. Besides, in experiment [1], the response vs control in vivo at 25 mg/kg worked out at 177%.

Turning to `CN(C)CCCn1nc2c3c(c(NCCN)ccc31)Sc1ccccc1-2` [(CH2)3N(CH3)2 / NHCH2CH2NH2, N-[2-[3-(dimethylamino)propyl]-2H[1]benzothiopyrano[4,3,2-cd]indazol-5-yl]-1,2-ethanediamine], the IC50 in the experiment on L1210 cells (setting [4]) was found to be 0.029 µM. The IC50 with HCT-8 cells (setting [5]) stood at 0.13 µM. Besides, in experiment [1], the response vs control in vivo at 6.25 mg/kg was 185% and the response vs control in vivo at 12.5 mg/kg turned out to be 298%.

Take `CN(C)CCCn1nc2c3c(c([N+](=O)[O-])ccc31)Sc1ccccc1-2` [CH2CH2CH2N(CH3)2 / NO2, N,N dimethyl-5-nitro-2H[1]benzothiopyrano[4,3,2-cd]indazole-2-propanamine]: the IC50 in the experiment with L1210 cells (setting [4]) came out at 0.19 µM. Further, in the experiment with HCT-8 cells (setting [5]), the IC50 is 0.21 µM. In experiment [1], the response vs control in vivo at 25 mg/kg was determined as 121% and the response vs control in vivo at 100 mg/kg came to 141%.

As for `CCN(CC)CCn1nc2c3c(c(N)ccc31)Sc1ccc(O)cc1-2` [CH2CH2N(C2H5)2 / NH2 / 9-OH, 5-Amino-2-[2-(diethylamino)ethyl]-2H[1]benzothiopyrano[4,3,2-cd]indazol-9-ol], the IC50 in the experiment on L1210 cells (setting [2]) amounted to 0.012 µM; in the experiment with HCT-8 cells (setting [3]), 0.028 µM. For the same molecule, the response vs control in vivo at 6.25 mg/kg in experiment [1] was 238%.

Take `CCN(CC)CCn1nc2c3c(c(NCCCN)ccc31)Sc1ccccc1-2` [CH2CH2N(C2H5)2 / NHCH2CH2CH2NH2]: in the experiment on L1210 cells (setting [4]), the IC50 turned out to be 0.29 µM. In addition, in the experiment with HCT-8 cells (setting [5]), the IC50 came out at 0.88 µM. In addition, in experiment [1], the response vs control in vivo at 3.12 mg/kg came to 132%, the response vs control in vivo at 6.25 mg/kg was found to be 142%, the response vs control in vivo at 12.5 mg/kg is 154% and the response vs control in vivo at 25 mg/kg was determined as 169%.

For the molecule `CCN(CC)CCn1nc2c3c(c(NCCN)ccc31)Sc1ccc(OC)cc1-2` [CH2CH2N(C2H5)2 / NHCH2CH2NH2 / 9-OCH3], the IC50 amounted to 0.21 µM with L1210 cells (setting [2]) and 0.29 µM in the experiment with HCT-8 cells (setting [3]). Further, the response vs control in vivo at 12.5 mg/kg in experiment [1] was 177%.

Take `CCN(CC)CCn1nc2c3c(c(NC(=O)CCl)ccc31)Sc1ccccc1-2` [CH2CH2N(C2H5)2 / NHCOCH2Cl, 2-Chloro-N-[2-[2-(diethylamino)ethyl]-2H[1]benzothiopyrano[4,3,2-cd]indazol-5-yl]acetamide]: the IC50 with L1210 cells (setting [4]) is 0.19 µM. For the same molecule, the IC50 with HCT-8 cells (setting [5]) was 0.38 µM. Further, in experiment [1], the response vs control in vivo at 25 mg/kg amounted to 124% and the response vs control in vivo at 50 mg/kg was 165%.

With `CCN(CC)CCn1nc2c3c(c([N+](=O)[O-])ccc31)Sc1c(OC)ccc(OC)c1-2` [CH2CH2N(C2H5)2 / NO2 / 7,10-(OCH3)2, N,N-Diethyl-7,10-dimethoxy-5-nitro-2H[1]benzothiopyrano[4,3,2-cd]indazol-2-ethanamine], the IC50 in the experiment on L1210 cells (setting [2]) was found to be 1.3 µM; with HCT-8 cells (setting [3]), 0.5 µM.

For `CCN(CC)CCn1nc2c3c(c([N+](=O)[O-])ccc31)Sc1c(O)ccc(O)c1-2` [CH2CH2N(C2H5)2 / NO2 / 7,10-(OH)2], the IC50 with L1210 cells (setting [2]) is 1.7 µM.

Consider `CCN(CC)CCn1nc2c3c(c([N+](=O)[O-])ccc31)Sc1c(OC)ccc(O)c1-2` [CH2CH2N(C2H5)2 / NO2 / 7-OCH3, 10-OH, 2-[2-(diethylamino)-ethyl]-7-methoxy-5-nitro-2H[1]benzothiopyrano[4,3,2-cd]indazol-10-ol], for which the IC50 came out at 1 µM with L1210 cells (setting [2]) and 0.42 µM in the experiment on HCT-8 cells (setting [3]).

`CCN(CC)CCn1nc2c3c(c(NCCN4CCOC4=O)ccc31)Sc1ccc(OC)cc1-2` [CH2CH2N(C2H5)2 / [drawing] / 9-OCH3, 3-[2-[[2-[2-(Diethylamino)ethyl]-9-methoxy-2H[1]benzothiopyrano[4,3,2-cd]indazol-5-yl]amino]ethyl]-2-oxazolidinone]: in the experiment with HCT-8 cells (setting [3]), the IC50 came to 1 µM. In addition, in experiment [1], the response vs control in vivo at 100 mg/kg was 220%.

Turning to `CCN(CC)CCn1nc2c3c(c(NCCN4CCOC4=O)ccc31)Sc1ccc(O)cc1-2` [CH2CH2N(C2H5)2 / [drawing] / 9-OH, 3-[2-[[2-[2-(diethylamino)ethyl]-9-hydroxy-2H[1]benzothiopyrano[4,3,2-cd]indazol-5-yl]amino]ethyl]-2-oxazolidinone], the IC50 came out at 0.0055 µM in the experiment on L1210 cells (setting [2]) and 0.024 µM in the experiment with HCT-8 cells (setting [3]). Also, the response vs control in vivo at 12.5 mg/kg in experiment [1] worked out at 175%.

In the case of `NCCn1nc2c3c(c([N+](=O)[O-])ccc31)Sc1ccccc1-2` [CH2CH2NH2 / NO2 / >300], in experiment [1], the response vs control in vivo at 12.5 mg/kg was 136% and the response vs control in vivo at 25 mg/kg stood at 187%.

For `CCNCCn1nc2c3c(c([N+](=O)[O-])ccc31)Sc1ccccc1-2` [CH2CH2NHC2H5 / NO2 / C17H16N4O2S·HCl], the IC50 stood at 0.024 µM with L1210 cells (setting [4]) and 0.14 µM in the experiment with HCT-8 cells (setting [5]). Moreover, the response vs control in vivo at 12.5 mg/kg in experiment [1] was determined as 187%.

As for `CCNCCn1nc2c3c(c(N)ccc31)Sc1ccccc1-2` [CH2CH2NHC2H5 / NO2 / C17H18N4S·2HCl], the IC50 is 0.071 µM with L1210 cells (setting [4]) and 0.3 µM in the experiment with HCT-8 cells (setting [5]). Further, the response vs control in vivo at 12.5 mg/kg in experiment [1] stood at 188%.

On to `CCN(CC)CCn1nc2c3c(c(N)ccc31)Sc1ccc(OC)cc1-2` [CH2CH2NHCH2CH2OH / NH2 / 9-OCH3, 5-Amino-N,N-diethyl-9-methoxy-2H[1]benzothiopyrano[4,3,2-cd]indazole-2-ethanamine], for which the IC50 with L1210 cells (setting [2]) worked out at 1.6 µM. Also, the response vs control in vivo at 50 mg/kg in experiment [1] was 154%.

Take `CCN(CC)CCNc1ccc2c3c(nn2CCNCCO)-c2ccccc2Sc13` [CH2CH2NHCH2CH2OH / NHCH2CH2N(C2H5)2, 2-[[2-[5-[[2-(Diethylamino)ethyl]amino]-2H[1]benzothiopyrano[4,3,2-cd]indazol-2-yl]ethyl]amino]ethanol]: in the experiment with L1210 cells (setting [4]), the IC50 was found to be 0.24 µM. Besides, the IC50 in the experiment on HCT-8 cells (setting [5]) turned out to be 0.45 µM. Moreover, in experiment [1], the response vs control in vivo at 3.12 mg/kg is 134%, the response vs control in vivo at 6.25 mg/kg was 137%, the response vs control in vivo at 12.5 mg/kg came out at 135% and the response vs control in vivo at 25 mg/kg is 147%.

As for `CCN(CC)CCn1nc2c3c(c([N+](=O)[O-])ccc31)Sc1ccc(OC)cc1-2` [CH2CH2NHCH2CH2OH / NO2 / C20H22N4O3S, N,N-Diethyl-9-methoxy-5-nitro-2H[1]benzothiopyrano[4,3,2-cd]indazole-2-ethanamine], in the experiment on L1210 cells (setting [2]), the IC50 came out at 0.64 µM. For the same molecule, in experiment [1], the response vs control in vivo at 12.5 mg/kg came to 142% and the response vs control in vivo at 25 mg/kg was 209%.
